The test system of series [1] is α-tubulin hyperacetylation, corresponding to HDAC6 inhibition. Nature of the series: α-tubulin hyperacetylation in cells. The following applies: for α-tubulin hyperacetylation versus histone hyperacetylation: at 2.5 µM.
The subject of another series is α-tubulin acetylation. The following applies: at 5 µM; ref 29 (Parmigiani et al.); cited from earlier work.
Series [2] deals with primary cortical neuron cultures. The experiment in a line: Neuronal toxicity of compound alone. Type of series: cell-based, Sprague-Dawley rats. The following applies: all concentrations tested, without HCA, 24 h, MTT.
Series [3] has the same test system. Nature of the series: HCA oxidative stress neuroprotection assay.
Series [4] relates to histone hyperacetylation, corresponds to class I HDAC inhibition. Nature of the series: histone hyperacetylation in cells. The following applies: at 10 µM.

We go through three molecules from article PMC2916045 (Journal of the American Chemical Society, 2010).

“Also recorded” adds a separate entry of the source.

Turning to `O=C(CCCCCCC(=O)Nc1ccc([C@H]2O[C@@H](CSc3nc(-c4ccccc4)c(-c4ccccc4)o3)C[C@@H](c3ccc(CO)cc3)O2)cc1)NO` [Tubacin, reference compound], in series [1], the “α-tubulin hyperacetylation versus histone hyperacetylation” value is “preferentially induced α-tubulin hyperacetylation”. Also, the α-tubulin acetylation entry in the series on α-tubulin acetylation was “induces α-tubulin acetylation”.

As for `CN1CCc2c(c3ccccc3n2Cc2ccc(C(=O)NO)cc2)C1.O=C(O)C(F)(F)F` [compound 6, Tubastatin A], the “neuronal toxicity when tested alone” value in series [2] is given as “exhibited no toxicity; also recorded: no neuronal toxicity”. Moreover, the “α-tubulin hyperacetylation versus histone hyperacetylation” value in series [1] is on record as “preferentially induced α-tubulin hyperacetylation”. The “levels of acetylated α-tubulin” value in series [1] (primary cortical neuron cultures) is given as “induce elevated levels of acetylated α-tubulin”. Moreover, the “in vitro ADME properties” value in the series “in vitro ADME properties” was “favorable in vitro ADME properties”. Moreover, the “concentration at which protection against HCA-induced neuronal cell death starts” value in series [3] (HCA 5 mM, 24 h, MTT) is reported as 5 µM. Besides, the “protection against HCA-induced neuronal cell death (glutathione depletion-induced oxidative stress)” value in series [3] (HCA 5 mM, 24 h, MTT, concentration series) is reported as “dose-dependent protection”. Further, the “protection against HCA-induced neuronal cell death” value in series [3] (at 10 µM, HCA 5 mM, 24 h, MTT) is “near complete protection”. In addition, the histone hyperacetylation result in series [4] was “Slight induction of histone hyperacetylation”.

For `CC(/C=C/C(=O)NO)=C\[C@@H](C)C(=O)c1ccc(N(C)C)cc1` [TSA, trichostatin A, reference compound], in series [3] (at 0.5 µM, HCA 5 mM, 24 h, MTT), the “neuroprotection in HCA-induced neurodegeneration assay” value is “moderately neuroprotective”. Also, in series [3] (at concentrations higher than 0.5 µM, protection declined), the “neurotoxicity in HCA-induced neurodegeneration assay” value was “dose-dependant neurotoxicity”.
